Measured values from patent publication US20250319139A1, “METHODS FOR TREATING NEUROINFLAMMATION” (University of Virginia Patent Foundation, priority 2021, published 2025).

What was measured:
[1] = references [27, 32]; cited from earlier work
IL-6 = experiment: ELISA of IL-6 in the serum; type: in vivo, mouse; details: young mice, 100 mg/kg intraperitoneal 1 h before and 6 h after 120-min MCAO; 24 h after MCAO; vs saline
Experimental: Mice were weighed and anesthetized with isoflurane at 24 h after MCAO. Blood samples were obtained from the right heart after thoracotomy. Blood was centrifuged (13,000 g, 4° C.) after it had been placed at 4° C. for 2 h for the collection of serum. After the collection of blood, mice were perfused with 4° C. saline for brain tissue harvesting. The cerebral cortex (anteroposterior: −1.5 to 2.5 mm, mediolateral: 1.0 to 3.0 mm) was dissected out. All dissection procedures were performed on ice.
IL-10, IL-17, IL-1β and IL-6 in the serum and brain were detected by using ELISA kits (catalog number: M1000B, M1700, MLB00C and D6050, R&D SYSTEM, Inc., Minneapolis, MN, USA) as we described before. The brain tissues were homogenized on ice in the RIPA buffer containing 25 mM Tris-HCl with pH 7.6, 150 mM NaCl, 1% sodium deoxycholate and 0.1% SDS (catalog number: 89901, Thermo Scientific, Rockford, IL, USA) and a protease inhibitor cocktail containing 10 mg/ml aproteinin, 5 mg/ml peptastin, 5 mg/ml leupetin and 1 mM phenylmethane sulfonylfluoride (catalog number: SRE0055, Sigma-Aldrich, St. Louis, MO, USA). The supernatant was collected for ELISA detection after being centrifuged for 20 min (13,000 g, 4° C.) and the protein concentration was determined by the BCA method. Cytokines in the serum and supernatant of brain were detected according to the manufacturer's instruction. […]

GDNF = GDNF in the hippocampus by ELISA; type: in vivo, mouse; details: exercise mice with surgery; intraperitoneal valeric acid
Experimental: IL-1β, IL-6, C3 and GDNF in the hippocampus were detected by using ELISA kits. For testing the IL-1β, IL-6 and GDNF, brain tissues were homogenized on ice in the RIPA buffer containing 25 mM Tris-HCl with pH 7.6, 150 mM NaCl, 1% sodium deoxycholate, 0.1% SDS and a protease inhibitor cocktail containing 10 mg/ml aproteinin, 5 mg/ml […], 5 mg/ml leupetin and 1 mM phenylmethane sulfonylfluoride. For C3 testing, brain tissues were homogenized on ice in the PTR buffer (supplied in the kit). The supernatant was collected for ELISA detection after the homogenate was centrifuged at 13,000 g for 20 min at 4° C. and the protein concentration was determined by the BCA protein assay (Bio-Rad, Hemel Hempstead, Herts, UK). IL-1β, IL-6, C3 and GDNF in supernatant of brain were detected according to the manufacturer's instruction for ELISA, and the amount of them in each sample in the brain was normalized by its total protein content and was expressed as pg/mg protein.

[2] = tested on: newly generated brain cells; experiment: BrdU immunofluorescent staining, brain cell genesis; type: in vivo, mouse; details: young adult mice with exercise and surgery; intraperitoneal valeric acid
Experimental: Seven days after surgery, mice were given 7 consecutive intraperitoneal injections of 80 mg/kg 5′-bromo-2′-deoxyuridine (BrdU) at 12:00 once daily as previously described. Mice were sacrificed 5 days later for harvesting hippocampus. Hippocampus was fixed in 4% paraformaldehyde in 0.1 M phosphate-buffered saline at 4° C. for 24 h and embedded in paraffin. Five-micron thick coronal brain sections were cut sequentially from Bregma −2 to −4 mm. Antigen retrieval was performed by incubating sections with sodium citrate buffer containing 10 mM sodium citrate, 0.05% Tween 20 (pH 6.0) at 95-100° C. for 20 min. DNA denaturation was done by incubating with 1 N HCl on ice for 3 min, 2 N HCL at room temperature for 3 min, and at 37° C. for 6 min. Sections were blocked with 5% donkey serum in phosphate-buffered saline (PBS) containing 0.5% triton-X 100 for 2 h at room temperature. […] Images were acquired with a fluorescence microscope with a charge-coupled device camera (High Mag Olympus BX51) and a LSM710 confocal microscopy system (ZEISS). […] The number of all cells positively stained for an interested marker or the combination of two markers in the sub-granular zone of the dentate gyrus of each section was counted. The quantitative analyses were performed in a blinded manner.

[3] = tested on: dendritic branches and spines of hippocampal neurons; experiment: Golgi staining, dendritic arborization; type: in vivo, mouse; details: young adult mice with exercise and surgery; intraperitoneal valeric acid
Experimental: Golgi staining was performed using FD Rapid GolgiStain™ Kit. Nineteen days after surgery, brains of 6 mice in each group were immersed in the impregnation solution (solutions A and B: 1:1) for 2 weeks and then transferred to solution C for 3 days. Coronal brain sections at a thickness of 100 μm and around-2.7 mm from bregma were cut on a vibratome (Microslicer® 10110, Ted Pella, Inc. California, USA). As described before, more than 10 well individualized neurons in the dentate gyrus (DG) region of the hippocampus were randomly selected from each mouse, and sequential optical multiple-layers scanning images were taken at an interval 2.0 μm along the z-axis (3DHISTECH, Pannoramic MIDI, Hungary) with 20× objective. The multiple-layer scanning files were superposed to become one clear scanning file that can be viewed with Caseviewer (3DHISTECH, Hungary) on a computer. The total branch number and dendritic length were measured by Fiji software (Fiji-win64, NIH, USA). The complexity of total dendritic trees (intersections) was estimated using Sholl analysis. For spine density measurement, 5 neurons were selected from each animal. […] The spine numbers in 40 μm segments were counted by an observer who was blind to group assignment. The results were expressed as the number of spines/10 μm segments. […]

CCCCC(=O)O [valeric acid]
crossing of blood-brain barrier [1]: can cross blood-brain barrier | IL-6 in the blood (IL-6): increased | GDNF levels in the hippocampus (GDNF): decreased | exercise attenuation of the decrease of newly generated brain cells [2]: this attenuation was blocked | exercise attenuation of the decrease of intersections among dendritic branches [3]: this attenuation was blocked | exercise attenuation of the decrease of spine density in the hippocampus [3]: this attenuation was blocked
